Source: patent US11021445B2, “Carboxylic acid derivative as AT2R receptor antagonist” (SHANDONG DANHONG PHARMACEUTICAL CO., LTD., priority 2017, dated 2021)

Each compound was assayed against T1, hAT2 (Homo sapiens, UniProt P50052) (assay: hAT2 receptor binding assay (SPA, [125I]-Sar1-Ile8-Angiotensin II)). Conditions: membrane of HEK-293 cells overexpressing hAT2; 0.1 nM 125I ligand.
T1 construct: expressed in transfected cells; host or cells: HEK-293
T1 sequence (P50052 1-363): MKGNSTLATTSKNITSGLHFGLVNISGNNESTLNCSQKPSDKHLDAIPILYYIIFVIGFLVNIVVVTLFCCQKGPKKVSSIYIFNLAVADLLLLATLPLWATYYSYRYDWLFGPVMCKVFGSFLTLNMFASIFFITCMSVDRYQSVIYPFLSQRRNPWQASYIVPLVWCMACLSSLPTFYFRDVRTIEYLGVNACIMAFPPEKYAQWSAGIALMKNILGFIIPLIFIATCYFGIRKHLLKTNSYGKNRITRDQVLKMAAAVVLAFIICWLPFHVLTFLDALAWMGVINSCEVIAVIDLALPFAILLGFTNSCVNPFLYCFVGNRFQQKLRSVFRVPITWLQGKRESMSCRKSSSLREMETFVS
Protocol: hAT2 Receptor Binding Assay
Protease inhibitor mixture, free of ethylenediaminetetraacetic acid-1 tablets (Roche #11873580001) (50 mL plus one piece)
Experimental Methods and Steps
The reference ligand PD123319 and the test compound were prepared into a 750 μM mother liquor by DMSO; each compound was prepared into a solution of 8 concentration gradients (up to a concentration of 750 μM, 3-fold dilution) and 10 μl of the solution was added to a master of a 384-well plate per well.
The SPA beads were prepared to a mother liquor of 25 mg/ml by the buffer;
The isotope [^125I]-Sar1-Ile8-Angiotensin II was prepared into a mother liquor of 50 μCi/ml by adding pure water.
The cell membrane overexpressing hAT2 in HEK-293 cells was prepared to 2.5 mg/ml by the buffer.
200 nl of compound was aspirated from the mother plate with ECHO to each well of the 384-well test plate. ZPE was added to an equal volume of DMSO. (The concentration of the test compound in the reaction was diluted by 250 times).
A 50 ml membrane solution containing 10 μg/μl of magnetic beads and 0.05 μg/μl of AT2 was prepared, placed on a shaker and uniformly mixed. (100 rpm, 30 min). The test plate finally contained an hAT2 membrane with 1.25 μg/well and magnetic beads with 250 μg/well.
A 3.2 ml membrane liquid mixture was added to the compound test plate by using a Multidrop Combi pipette, and 25 μl was added to each well.
A 0.2 nM solution was prepared with 50 μCi/ml of isotope [^125I]-Sar1-Ile8-Angiotensin II mother liquor by the buffer, and 0.2 nM of ^125I was added to the compound test plate with a Multidrop Combi pipette. A volume of 25 μl was added to each well. The final concentration of ^125I isotope is 0.1 nM.
The prepared test plate was placed on a shaker overnight at room temperature at 200 rpm.
The test plate was centrifuged with a centrifuge at 1200 rpm for 1 min.
The centrifuged test plate was read with Microbeta.
An IC50 of 0.0298 µM was found for `COc1ccc2c(c1OCc1ccccc1)C[C@@H](C(=O)O)N(C(=O)[C@H](Oc1ccc(F)cc1F)c1ccccc1)C2` [Compound 28] in this work.
An IC50 of 0.0951 µM was found for `COc1ccc2c(c1OCc1ccccc1)C[C@@H](C(=O)O)N(C(=O)[C@H](Oc1cccs1)c1ccccc1)C2` [Compound 26] in this work.
An IC50 of 0.0352 µM was found for `COc1ccc2c(c1OCc1ccccc1)C[C@@H](C(=O)O)N(C(=O)[C@@H](OCC(F)(F)F)c1ccccc1)C2` [Compound 7] in this work.
An IC50 of 0.227 µM was found for `COc1ccc2c(c1OCc1ccccc1)C[C@@H](C(=O)O)N(C(=O)[C@H](Oc1ccc(Cl)cc1)c1ccccc1)C2` [Compound 34] in this work.
An IC50 of 0.186 µM was found for `COc1ccc2c(c1OCc1ccccc1)C[C@@H](C(=O)O)N(C(=O)C(Oc1ccccc1)c1ccccc1)C2` (stereo partly drawn) [Compound 46] in this work.
An IC50 of 0.0971 µM was found for `COc1ccc2c(c1OCc1ccccc1)C[C@@H](C(=O)O)N(C(=O)[C@H](Oc1ccc3ccccc3c1)c1ccccc1)C2` [Compound 36] in this work.
An IC50 of 0.0607 µM was found for `COc1ccc2c(c1OCc1ccccc1)C[C@@H](C(=O)O)N(C(=O)[C@H](O[C@@H]1CCOC1)c1ccccc1)C2` (single isomer, unassigned) [Compound 10] in this work.
An IC50 of over 3 µM was found for `COc1ccc2c(c1OCc1ccccc1)C[C@@H](C(=O)O)N(C(=O)[C@H](NC(=O)C1CCCC1)c1ccccc1)C2` [Compound 43] in this work.
An IC50 of 0.0185 µM was found for `COc1ccc2c(c1OCc1ccccc1)C[C@@H](C(=O)O)N(C(=O)[C@@H](OC(C)(C)C)c1ccccc1)C2` [Compound 39] in this work.
An IC50 of 0.0304 µM was found for `O=C(O)[C@@H]1Cc2c(ccc(O)c2OCc2ccccc2)CN1C(=O)[C@@H](OC1CCCC1)c1ccccc1` [Compound 118] in this work.
An IC50 of 0.0177 µM was found for `CCCCO[C@H](C(=O)N1Cc2ccc(OC)c(OCc3ccccc3)c2C[C@H]1C(=O)O)c1ccccc1` [Compound 5] in this work.
An IC50 of 0.0053 µM was found for `Cc1ccc2c(c1OCc1ccccc1)C[C@@H](C(=O)O)N(C(=O)[C@H](O[C@H]1CC[C@@H](O)CC1)c1ccccc1)C2` [Compound 72] in this work.
An IC50 of 0.0165 µM was found for `COc1ccc2c(c1OCc1ccccc1)C[C@@H](C(=O)O)N(C(=O)[C@H](Oc1c(F)cc(F)cc1F)c1ccccc1)C2` [Compound 16] in this work.
An IC50 of 0.27 µM was found for `COc1ccc2c(c1OCc1ccccc1)C[C@@H](C(=O)O)N(C(=O)[C@H](OC1CCC3CC31)c1ccccc1)C2` (single isomer, unassigned) [Compound 62] in this work.
An IC50 of 0.691 µM was found for `COc1ccc2c(c1OCc1ccccc1)C[C@@H](C(=O)O)N(C(=O)[C@H](OC1CCCC1)c1ccccc1)C2` [Compound 38] in this work.
An IC50 of 0.383 µM was found for `CCCCO[C@@H](C(=O)N1Cc2ccc(OC)c(OCc3ccccc3)c2C[C@H]1C(=O)O)c1ccccc1` [Compound 6] in this work.
An IC50 of 1.34 µM was found for `COc1ccc2c(c1OCc1ccccc1)C[C@@H](C(=O)O)N(C(=O)[C@H](Oc1ccccn1)c1ccccc1)C2` [Compound 22] in this work.
An IC50 of 0.0835 µM was found for `O=C(O)[C@@H]1Cc2c(cccc2OCc2ccccc2)CN1C(=O)[C@@H](O[C@H]1C[C@@H](O)C1)c1ccccc1` [Compound 85] in this work.
An IC50 of over 3 µM was found for `COc1ccc2c(c1OCc1ccccc1)C[C@@H](C(=O)O)N(C(=O)[C@H](OC1CCCC1)c1ccc(F)cc1)C2` [Compound 54] in this work.
An IC50 of 1.24 µM was found for `COc1ccc2c(c1OCc1ccccc1)C[C@@H](C(=O)O)N(C(=O)[C@@H](Oc1ccc3ccccc3c1)c1ccccc1)C2` [Compound 35] in this work.
An IC50 of 0.0058 µM was found for `CC1(O[C@H](C(=O)N2Cc3cccc(OCc4ccccc4)c3C[C@H]2C(=O)O)c2ccccc2)CCCC1` [Compound 79] in this work.
An IC50 of 0.0091 µM was found for `COc1ccc2c(c1OCc1cccs1)C[C@@H](C(=O)O)N(C(=O)[C@@H](OC1CCCC1)c1ccccc1)C2` [Compound 117] in this work.
An IC50 of 0.129 µM was found for `O=C(O)[C@@H]1Cc2c(ccc(Cl)c2OCc2ccccc2)CN1C(=O)[C@H](OC1CC(F)(F)C1)c1ccccc1` [Compound 74] in this work.
An IC50 of 0.0727 µM was found for `COc1ccc2c(c1OCc1ccccc1)C[C@@H](C(=O)O)N(C(=O)[C@H](OC1CCC3CC31)c1ccccc1)C2` (single isomer, unassigned) [Compound 61] in this work.
An IC50 of 0.85 µM was found for `COc1ccc2c(c1OCc1ccccc1)CC(C(=O)O)N(C(=O)C(OC1CCOCC1)c1ccccc1)C2` (single isomer, unassigned) [Compound 2] in this work.
An IC50 of 0.25 µM was found for `COc1ccc2c(c1OCc1ccccc1)C[C@@H](C(=O)O)N(C(=O)[C@@H](Oc1ccccc1)c1ccccc1)C2` [Compound 19] in this work.
An IC50 of 0.879 µM was found for `O=C(O)[C@@H]1Cc2c(cccc2OCc2ccccc2)CN1C(=O)[C@H](O[C@H]1C[C@@H](O)C1)c1ccccc1` [Compound 86] in this work.
An IC50 of 0.513 µM was found for `COc1ccc2c(c1OCc1ccccc1)C[C@@H](C(=O)O)N(C(=O)[C@H](OCC(F)(F)F)c1ccccc1)C2` [Compound 8] in this work.
An IC50 of over 3 µM was found for `COc1ccc2c(c1OCc1ccccc1)C[C@@H](C(=O)O)N(C(=O)[C@@H](O[C@H]1CCOC1)c1ccccc1)C2` (single isomer, unassigned) [Compound 11] in this work.
An IC50 of 0.143 µM was found for `COc1ccc2c(c1OCc1ccccc1)C[C@@H](C(=O)O)N(C(=O)[C@@H](Oc1ccccc1F)c1ccccc1)C2` [Compound 17] in this work.
An IC50 of 0.225 µM was found for `COc1ccc2c(c1OCc1ccccc1)C[C@@H](C(=O)O)N(C(=O)[C@H](OC1CC3CC3C1)c1ccccc1)C2` (stereo partly drawn) [Compound 56] in this work.
An IC50 of 0.0656 µM was found for `Cc1ccc2c(c1OCc1ccccc1)C[C@@H](C(=O)O)N(C(=O)[C@H](OC1(C)CCCC1)c1ccccc1)C2` [Compound 70] in this work.
An IC50 of 0.0841 µM was found for `COc1ccc2c(c1OCc1ccccc1)C[C@@H](C(=O)O)N(C(=O)[C@@H](OC1CCCC1)c1ccc(F)cc1)C2` [Compound 53] in this work.
An IC50 of 0.154 µM was found for `COc1ccc2c(c1OCc1ccccc1)C[C@@H](C(=O)O)N(C(=O)[C@@H](OC1COC1)c1ccccc1)C2` [Compound 13] in this work.
An IC50 of 0.0039 µM was found for `CC1(O[C@H](C(=O)N2Cc3ccc(Cl)c(OCc4ccccc4)c3C[C@H]2C(=O)O)c2ccccc2)CCCC1` [Compound 75] in this work.
An IC50 of 0.0476 µM was found for `COc1ccc2c(c1OCc1ccccc1)C[C@@H](C(=O)O)N(C(=O)[C@@H](O[C@@H]1CCOC1)c1ccccc1)C2` (single isomer, unassigned) [Compound 9] in this work.
An IC50 of 0.0783 µM was found for `COc1ccc2c(c1OCc1ccccc1)C[C@@H](C(=O)O)N(C(=O)[C@H](Oc1ccc(F)cc1)c1ccccc1)C2` [Compound 32] in this work.
An IC50 of 0.0541 µM was found for `COc1ccc2c(c1OCc1ccccc1)C[C@@H](C(=O)O)N(C(=O)[C@H](Oc1ccccc1F)c1ccccc1)C2` [Compound 18] in this work.
An IC50 of 0.881 µM was found for `O=C(O)[C@@H]1Cc2c(ccc(Cl)c2OCc2ccccc2)CN1C(=O)[C@@H](O[C@H]1CC[C@@H](O)CC1)c1ccccc1` [Compound 77] in this work.
An IC50 of 0.836 µM was found for `COCCO[C@@H](C(=O)N1Cc2ccc(OC)c(OCc3ccccc3)c2C[C@H]1C(=O)O)c1ccccc1` [Compound 4] in this work.
An IC50 of over 3 µM was found for `COc1ccc2c(c1OCc1ccccc1)C[C@@H](C(=O)O)N(C(=O)[C@H](OC1COC1)c1ccccc1)C2` [Compound 14] in this work.
An IC50 of 0.0227 µM was found for `COc1ccc2c(c1OCc1ccccc1)C[C@@H](C(=O)O)N(C(=O)[C@@H](OC1CCC3CC31)c1ccccc1)C2` (single isomer, unassigned) [Compound 59] in this work.
An IC50 of 0.373 µM was found for `COc1ccc2c(c1OCc1ccccc1)C[C@@H](C(=O)O)N(C(=O)[C@H](Oc1ccc(C#N)cc1)c1ccccc1)C2` [Compound 30] in this work.
An IC50 of 0.192 µM was found for `COc1ccc(O[C@@H](C(=O)N2Cc3ccc(OC)c(OCc4ccccc4)c3C[C@H]2C(=O)O)c2ccccc2)cc1` [Compound 24] in this work.
An IC50 of over 3 µM was found for `COc1ccc2c(c1OCc1ccccc1)C[C@@H](C(=O)O)N(C(=O)[C@H](OC1CCOC1)c1ccccc1)C2` (single isomer, unassigned) [Compound 12] in this work.
An IC50 of 0.0727 µM was found for `CC1(O[C@@H](C(=O)N2Cc3ccc(Cl)c(OCc4ccccc4)c3C[C@H]2C(=O)O)c2ccccc2)CCCC1` [Compound 76] in this work.
An IC50 of 0.481 µM was found for `O=C(O)[C@@H]1Cc2c(cccc2OCc2ccccc2)CN1C(=O)[C@H](OC1CC(F)(F)C1)c1ccccc1` [Compound 84] in this work.
An IC50 of 0.115 µM was found for `COc1ccc2c(c1OCc1ccccc1)C[C@@](C)(C(=O)O)N(C(=O)[C@H](OC1CCCC1)c1ccccc1)C2` [Compound 115] in this work.
An IC50 of 0.0596 µM was found for `COc1ccc2c(c1OCc1ccccc1)C[C@@H](C(=O)O)N(C(=O)[C@@H](Oc1ccc(F)cc1)c1ccccc1)C2` [Compound 31] in this work.
An IC50 of 0.245 µM was found for `COc1ccc2c(c1OCc1ccccc1)C[C@@H](C(=O)O)N(C(=O)[C@@H](Oc1ccc(F)cc1F)c1ccccc1)C2` [Compound 27] in this work.
An IC50 of 0.0964 µM was found for `COc1ccc2c(c1OCc1ccccc1)C[C@@H](C(=O)O)N(C(=O)[C@@H](Oc1c(F)cc(F)cc1F)c1ccccc1)C2` [Compound 15] in this work.
